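Dose response: 5 concentrations. Exposure: 48 h. Format: 96-well plates. Endpoint: linear interpolation; highest concentration if not reached. GI50: concentration for 50% inhibition of growth.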 Activity calls are given as the source filed them. Rule as the data show it: active = GI50 up to about 1.1 µM and inactive = higher.
Tests used:
Test in all cases: growth of human tumour cells (NCI), 48 h
786-0 = test system: 786-0
A498 = test system: A498
A549 = test system: A549
ACHN = test system: ACHN
CAKI-1 = test system: CAKI-1
CCRF-CEM = test system: CCRF-CEM
COLO 205 = test system: COLO 205
DLD-1 = test system: DLD-1
DMS-114 = test system: DMS-114
DMS-273 = test system: DMS-273
EKVX = test system: EKVX
HCC 2998 = test system: HCC 2998
HCT-116 = test system: HCT-116
HCT-15 = test system: HCT-15
HOP-62 = test system: HOP-62
HOP-92 = test system: HOP-92
HT-29 = test system: HT-29
IGROV-1 = test system: IGROV-1
K562 = test system: K562
KM-20L2 = test system: KM-20L2
KM12 = test system: KM12
LOX IMVI = test system: LOX IMVI
LXFL 529 = test system: LXFL 529
M14 = test system: M14
M19-MEL = test system: M19-MEL
MOLT-4 = test system: MOLT-4
Malme-3M = test system: Malme-3M
NCI-H226 = test system: NCI-H226
NCI-H23 = test system: NCI-H23
NCI-H460 = test system: NCI-H460
NCI-H522 = test system: NCI-H522
OVCAR-3 = test system: OVCAR-3
OVCAR-4 = test system: OVCAR-4
OVCAR-5 = test system: OVCAR-5
OVCAR-8 = test system: OVCAR-8
RPMI-8226 = test system: RPMI-8226
RXF 393 = test system: RXF 393
RXF 631 = test system: RXF 631
SF-268 = test system: SF-268
SF-295 = test system: SF-295
SF-539 = test system: SF-539
SK-MEL-28 = test system: SK-MEL-28
SK-MEL-2 = test system: SK-MEL-2
SK-MEL-5 = test system: SK-MEL-5
SK-OV-3 = test system: SK-OV-3
SN12C = test system: SN12C
SNB-19 = test system: SNB-19
SNB-75 = test system: SNB-75
SNB-78 = test system: SNB-78
SW-620 = test system: SW-620
TK-10 = test system: TK-10
U-251 = test system: U-251
UACC-257 = test system: UACC-257
UACC-62 = test system: UACC-62
UO-31 = test system: UO-31
XF498 = test system: XF498
HOP-18 = test system: HOP-18
SR = test system: SR
HL-60 = test system: HL-60

CC(=O)NC(CCCNCc1ccccc1)C(=O)NCc1ccccc1 (stereo not given)
GI50 (786-0): > 100 µM (inactive)
GI50 (A498): > 100 µM (inactive)
GI50 (A549): > 100 µM (inactive)
GI50 (ACHN): > 100 µM (inactive)
GI50 (CAKI-1): > 100 µM (inactive)
GI50 (CCRF-CEM): > 100 µM (inactive)
GI50 (COLO 205): > 100 µM (inactive)
GI50 (DLD-1): > 100 µM (inactive)
GI50 (DMS-114): > 100 µM (inactive)
GI50 (DMS-273): > 100 µM (inactive)
GI50 (EKVX): > 100 µM (inactive)
GI50 (HCC 2998): > 100 µM (inactive)
GI50 (HCT-116): > 100 µM (inactive)
GI50 (HCT-15): > 100 µM
GI50 (HOP-62): > 100 µM (inactive)
GI50 (HOP-92): > 100 µM (inactive)
GI50 (HT-29): > 100 µM (inactive)
GI50 (IGROV-1): > 100 µM (inactive)
GI50 (K562): > 100 µM (inactive)
GI50 (KM-20L2): > 100 µM (inactive)
GI50 (KM12): > 100 µM (inactive)
GI50 (LOX IMVI): > 100 µM (inactive)
GI50 (LXFL 529): > 100 µM (inactive)
GI50 (M14): > 100 µM (inactive)
GI50 (M19-MEL): > 100 µM (inactive)
GI50 (MOLT-4): > 100 µM (inactive)
GI50 (Malme-3M): > 100 µM (inactive)
GI50 (NCI-H226): > 100 µM (inactive)
GI50 (NCI-H23): > 100 µM (inactive)
GI50 (NCI-H460): > 100 µM (inactive)
GI50 (NCI-H522): > 100 µM (inactive)
GI50 (OVCAR-3): > 100 µM (inactive)
GI50 (OVCAR-4): > 100 µM (inactive)
GI50 (OVCAR-5): > 100 µM (inactive)
GI50 (OVCAR-8): > 100 µM (inactive)
GI50 (RPMI-8226): > 100 µM (inactive)
GI50 (RXF 393): > 100 µM (inactive)
GI50 (RXF 631): > 100 µM (inactive)
GI50 (SF-268): > 100 µM (inactive)
GI50 (SF-295): > 100 µM (inactive)
GI50 (SF-539): > 100 µM (inactive)
GI50 (SK-MEL-28): > 100 µM (inactive)
GI50 (SK-MEL-2): > 100 µM (inactive)
GI50 (SK-MEL-5): > 100 µM (inactive)
GI50 (SK-OV-3): > 100 µM (inactive)
GI50 (SN12C): > 100 µM (inactive)
GI50 (SNB-19): > 100 µM (inactive)
GI50 (SNB-75): 87.3 µM (inactive)
GI50 (SNB-78): 82 µM (inactive)
GI50 (SW-620): > 100 µM (inactive)
GI50 (TK-10): > 100 µM (inactive)
GI50 (U-251): > 100 µM (inactive)
GI50 (UACC-257): > 100 µM (inactive)
GI50 (UACC-62): > 100 µM (inactive)
GI50 (UO-31): > 100 µM (inactive)
GI50 (XF498): > 100 µM (inactive)

COc1ccc(-c2cc(-c3ccco3)c(C#N)c(=O)n2C2OC(OC(=O)c3ccccc3)C(OC(=O)c3ccccc3)C2OC(=O)c2ccccc2)cc1 (stereo not given)
GI50 (786-0): > 100 µM (inactive)
GI50 (A498): > 100 µM (inactive)
GI50 (ACHN): > 100 µM (inactive)
GI50 (CAKI-1): > 100 µM (inactive)
GI50 (CCRF-CEM): > 100 µM (inactive)
GI50 (COLO 205): > 100 µM (inactive)
GI50 (DLD-1): > 100 µM (inactive)
GI50 (DMS-114): > 100 µM (inactive)
GI50 (DMS-273): 63.4 µM (inactive)
GI50 (EKVX): > 100 µM (inactive)
GI50 (HCC 2998): > 100 µM (inactive)
GI50 (HCT-116): 40.2 µM (inactive)
GI50 (HCT-15): > 100 µM
GI50 (HOP-18): > 100 µM (inactive)
GI50 (HOP-62): 52.6 µM (inactive)
GI50 (HOP-92): 23.9 µM (inactive)
GI50 (HT-29): > 100 µM (inactive)
GI50 (IGROV-1): > 100 µM (inactive)
GI50 (K562): > 100 µM (inactive)
GI50 (KM-20L2): > 100 µM (inactive)
GI50 (KM12): > 100 µM (inactive)
GI50 (LOX IMVI): > 100 µM (inactive)
GI50 (LXFL 529): > 100 µM (inactive)
GI50 (M14): > 100 µM (inactive)
GI50 (M19-MEL): > 100 µM (inactive)
GI50 (MOLT-4): > 100 µM (inactive)
GI50 (Malme-3M): > 100 µM (inactive)
GI50 (NCI-H226): > 100 µM (inactive)
GI50 (NCI-H23): > 100 µM (inactive)
GI50 (NCI-H460): > 100 µM (inactive)
GI50 (NCI-H522): 63.5 µM (inactive)
GI50 (OVCAR-3): 58.6 µM (inactive)
GI50 (OVCAR-4): > 100 µM (inactive)
GI50 (OVCAR-5): > 100 µM (inactive)
GI50 (OVCAR-8): > 100 µM (inactive)
GI50 (RPMI-8226): > 100 µM (inactive)
GI50 (RXF 393): 14.4 µM (inactive)
GI50 (RXF 631): > 100 µM (inactive)
GI50 (SF-268): > 10 µM (inactive)
GI50 (SF-295): 50.2 µM (inactive)
GI50 (SF-539): > 100 µM (inactive)
GI50 (SK-MEL-28): > 100 µM (inactive)
GI50 (SK-MEL-2): > 100 µM (inactive)
GI50 (SK-MEL-5): > 100 µM (inactive)
GI50 (SN12C): > 100 µM (inactive)
GI50 (SNB-19): 62.5 µM (inactive)
GI50 (SNB-75): 72.1 µM (inactive)
GI50 (SNB-78): > 100 µM (inactive)
GI50 (SR): > 100 µM (inactive)
GI50 (SW-620): > 100 µM (inactive)
GI50 (TK-10): 13.6 µM (inactive)
GI50 (U-251): 33.1 µM (inactive)
GI50 (UACC-257): > 100 µM (inactive)
GI50 (UACC-62): > 10 µM (inactive)
GI50 (UO-31): 46 µM (inactive)

CCOc1cc(/C=C/C=C/C=C/c2ccc(N(C)C)cc2)[s+]c2ccccc12
GI50 (786-0): 22.5 µM (inactive)
GI50 (A498): > 100 µM (inactive)
GI50 (A549): 21 µM (inactive)
GI50 (ACHN): 35.6 µM (inactive)
GI50 (CAKI-1): 26.5 µM (inactive)
GI50 (CCRF-CEM): 4.88 µM (inactive)
GI50 (COLO 205): 41.1 µM (inactive)
GI50 (DMS-114): 5.61 µM (inactive)
GI50 (DMS-273): 73.8 µM (inactive)
GI50 (EKVX): > 100 µM (inactive)
GI50 (HCC 2998): 48.2 µM (inactive)
GI50 (HCT-116): 17.7 µM (inactive)
GI50 (HCT-15): 26.4 µM
GI50 (HL-60): 1.72 µM (inactive)
GI50 (HOP-62): 95.5 µM (inactive)
GI50 (HOP-92): 25.1 µM (inactive)
GI50 (HT-29): 28.7 µM (inactive)
GI50 (IGROV-1): 37.5 µM (inactive)
GI50 (K562): 20.9 µM (inactive)
GI50 (KM12): 10.1 µM (inactive)
GI50 (LXFL 529): 16.3 µM (inactive)
GI50 (M14): 19.7 µM (inactive)
GI50 (M19-MEL): 25 µM (inactive)
GI50 (MOLT-4): 5.5 µM (inactive)
GI50 (Malme-3M): 22.9 µM (inactive)
GI50 (NCI-H226): 11.1 µM (inactive)
GI50 (NCI-H23): 29.9 µM (inactive)
GI50 (NCI-H460): 46.9 µM (inactive)
GI50 (NCI-H522): 4.56 µM (inactive)
GI50 (OVCAR-3): 14.4 µM (inactive)
GI50 (OVCAR-4): 19.3 µM (inactive)
GI50 (OVCAR-5): > 100 µM (inactive)
GI50 (OVCAR-8): 27.6 µM (inactive)
GI50 (RPMI-8226): 6.78 µM (inactive)
GI50 (RXF 393): 10 µM (inactive)
GI50 (RXF 631): > 100 µM (inactive)
GI50 (SF-268): 13.5 µM (inactive)
GI50 (SF-295): 33.8 µM (inactive)
GI50 (SF-539): 18.2 µM (inactive)
GI50 (SK-MEL-28): 19.1 µM (inactive)
GI50 (SK-MEL-2): 37.3 µM (inactive)
GI50 (SK-MEL-5): 24 µM (inactive)
GI50 (SK-OV-3): > 100 µM (inactive)
GI50 (SN12C): 21.2 µM (inactive)
GI50 (SNB-19): 24.1 µM (inactive)
GI50 (SNB-75): 32 µM (inactive)
GI50 (SNB-78): 22.5 µM (inactive)
GI50 (SW-620): 30.3 µM (inactive)
GI50 (TK-10): 40.4 µM (inactive)
GI50 (U-251): 31.8 µM (inactive)
GI50 (UACC-257): 30.7 µM (inactive)
GI50 (UACC-62): 27.8 µM (inactive)
GI50 (UO-31): 4.58 µM (inactive)
GI50 (XF498): 23.8 µM (inactive)

Reference: ChEMBL document CHEMBL1201862, “PubChem BioAssay data set” (2004)
